Reference: the NIST ThermoML archive (doi:10.1021/je5004719)

Experiment: xn = mol fraction of the nth substance listed
Conditions: 101 kPa, Liquid; for speed of sound: Sing-around technique in a fixed-path interferometer; for mass density: Vibrating tube method

Cc1ccccc1C [1,2-dimethylbenzene] + C1CCOCC1
Conditions	mass density, 298.15 K [kg/m3]	mass density, 303.15 K [kg/m3]	speed of sound, 298.15 K [m/s]	speed of sound, 303.15 K [m/s]
x2 = 0.0908	876.43	872.06	1345.3	1323.7
x2 = 0.1432	876.68	872.25	1343.1	1321
x2 = 0.1897	876.87	872.4	1340.4	1317.9
x2 = 0.2318	877.04	872.53	1337.4	1314.7
x2 = 0.2953	877.26	872.71	1332.1	1309.2
x2 = 0.331	877.39	872.81	1328.8	1305.9
x2 = 0.3872	877.57	872.95	1323.2	1300.4
x2 = 0.4287	877.7	873.05	1319	1296.2
x2 = 0.4792	877.86	873.17	1313.7	1291
x2 = 0.5187	877.99	873.26	1309.6	1286.9
x2 = 0.5725	878.16	873.38	1304.1	1281.4
x2 = 0.6182	878.31	873.48	1299.5	1276.8
x2 = 0.6682	878.47	873.58	1294.6	1272
x2 = 0.7187	878.62	873.67	1290	1267.3
x2 = 0.7729	878.78	873.77	1285.3	1262.5
x2 = 0.8367	878.94	873.86	1280.2	1257.3
x2 = 0.8952	879.05	873.93	1276.1	1253.1
x2 = 0.9274	879.1	873.96	1274	1251

Cc1ccccc1Cl [2-chlorotoluene] + Cc1ccccc1
Conditions	mass density, 298.15 K [kg/m3]	mass density, 303.15 K [kg/m3]	mass density, 308.15 K [kg/m3]	speed of sound, 298.15 K [m/s]	speed of sound, 303.15 K [m/s]	speed of sound, 308.15 K [m/s]
x1 = 0.0935	884.2	879.51	874.8	1302	1281.3	1260.6
x1 = 0.1346	893.74	889.04	884.33	1301.2	1280.6	1260.2
x1 = 0.1681	901.47	896.76	892.04	1300.5	1280.2	1259.9
x1 = 0.2393	917.7	912.99	908.26	1299.5	1279.4	1259.3
x1 = 0.2782	926.47	921.75	917.02	1299	1279	1259
x1 = 0.3342	938.97	934.25	929.51	1298.5	1278.7	1258.8
x1 = 0.3871	950.65	945.92	941.17	1298.1	1278.5	1258.7
x1 = 0.4375	961.66	956.92	952.17	1297.9	1278.3	1258.7
x1 = 0.4872	972.41	967.66	962.89	1297.7	1278.3	1258.8
x1 = 0.5312	981.84	977.07	972.3	1297.6	1278.3	1259
x1 = 0.5912	994.55	989.78	984.99	1297.4	1278.4	1259.3
x1 = 0.6218	1001	996.2	991.4	1297.4	1278.5	1259.5
x1 = 0.6753	1012.1	1007.3	1002.5	1297.4	1278.7	1260
x1 = 0.7231	1022	1017.2	1012.3	1297.4	1278.9	1260.4
x1 = 0.7854	1034.7	1029.9	1025	1297.6	1279.2	1261
x1 = 0.8351	1044.7	1039.9	1035	1297.7	1279.5	1261.5
x1 = 0.8824	1054.2	1049.3	1044.5	1297.9	1279.8	1262
x1 = 0.9231	1062.3	1057.4	1052.5	1298.1	1280.1	1262.3
